Assay results taken from US10556860B2, “hTERT modulators and methods of use” (Arizona Board of Regents on Behalf of the University of …, priority 2015, dated 2020).

Assays:
[1] = tested on: MYC mRNA; experiment: qPCR of MYC mRNA in MCF7 cells; assay type: cell-based, human; conditions: 72 h
Description: (§1) qPCR. MCF7 and melanoma cells were treated with GTC365 and BRACO-19 for 72 h. Total RNA was extracted using an RNeasy mini-prep kit (Qiagen) and quantitated by measuring absorbance at 260 nm. cDNA was synthesized using a Takara PrimeScript™ RT Reagent Kit with gDNA eraser and then used as a template for qPCR. The qPCR was performed using Kapa Probe Fast qPCR Master Mix with ABI Taqman probes of hTERT (Hs00972656_m1), BCL2 (HS00608023_m1, FAM-labeled) or MYC (Hs00153408_m1), and GAPDH (Hs02758991_g1, VIC-labeled). The Ct values were measured by running Rotor-Gene Q, and the relative quantity of hTERT, BCL2, and MYC mRNA was obtained compared to GAPDH as an internal control.
(§2) BCL2 is a downstream molecule to hTERT such that BCL2 expression is activated by hTERT to repress apoptosis. To further define the effect of GTC365 on the transcription of hTERT, the relative mRNA levels of MYC and BCL2 were determined by quantitative PCR analysis in MCF7 cells after treatment with GTC365 for 72 h. […] A series of GTC260 analogs were synthesized and their effect on hTERT gene expression in MCF7A and U87 cells determined (FIG. 7). […] Therefore, GTC365 directly repressed the transcription of hTERT and then led to a downstream decrease of BCL2 expression.

[2] = tested on: BCL2 mRNA; experiment: qPCR of BCL2 mRNA in MCF7 cells; assay type: cell-based, human; conditions: 72 h
Description: as §1, §2

## Cc1cc(NC(=O)NC(=O)c2ccccc2NC(=O)C(C)N)ccc1Oc1ncc(Br)cn1 (centres unmarked) [GTC260]
[1]
  effect on MYC mRNA level: no effect
[2]
  effect on BCL2 mRNA level: direct repression of hTERT transcription and the downstream molecule BCL2
